Source: article PMC9696605 (Viruses, 2022)

How the values were obtained:
hNedd4L-WW3* [1] = target: T1, hNedd4L-WW3* (Homo sapiens, UniProt Q96PU5); settings: NMR titrations; cited from earlier work
T1 construct: GST (N, cleaved yes); made in house; host or cells: E. coli BL21(DE3), pGEX-4T2

[2] = system: KIR2DL2 positive NK cells vs 721.221-ICP47-C1 cells; experiment: CAM cytotoxicity assay, 721.221-ICP47-C1 targets; assay type: cell-based, human; settings: NK cells from MS patients, 4 h, 26 °C, Figure 5c, MBP, pU24-6B, U24-7 p < 0.001, pU24-6A p: NS (Fisher exact test)
[3] = system: NK cells from MS patients co-cultured with 721.221-ICP47-C1 cells; experiment: CD107a degranulation assay; assay type: cell-based, human; settings: 721.221-ICP47-C1 cells incubated with pU24-6A, Figure 5e; p < 0.01 (Fisher exact test)
hNedd4L-WW3* [4] = target: T1, hNedd4L-WW3*; settings: binding to hNedd4L-WW3* domain, quoted from earlier work; ref 30 (Sang et al.); cited from earlier work
Fyn-SH3 = Fyn-SH3 (Homo sapiens, UniProt P06241); settings: phosphorylated MBP; cited from earlier work
Sequence of Fyn-SH3 (P06241 with tags, fused parts or gaps): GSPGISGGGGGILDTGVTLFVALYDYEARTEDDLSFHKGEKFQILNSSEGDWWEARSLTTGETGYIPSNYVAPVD

[5] = cited from earlier work
actin = settings: cited from earlier work

T1 sequence (Q96PU5 with tags, fused parts or gaps): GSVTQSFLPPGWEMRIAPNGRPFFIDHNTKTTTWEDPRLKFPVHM

For `CSCC[C@H](N)C(=O)N[C@@H](CC(=O)O)C(=O)N1CCC[C@H]1C(=O)N1CCC[C@H]1C(=O)N[C@@H](CCCNC(=N)N)C(=O)N[C@H](C(=O)N1CCC[C@H]1C(=O)N1CCC[C@H]1C(=O)N1CCC[C@H]1C(=O)N[C@@H](CO)C(=O)N[C@@H](Cc1ccc(O)cc1)C(=O)N[C@@H](CO)C(=O)N[C@@H](CCC(=O)O)C(=O)N[C@H](C(=O)N[C@@H](CC(C)C)C(=O)O)C(C)C)[C@@H](C)OP(=O)(O)O` [pU24-6A], the “hNedd4L-WW3* residue perturbed” value (hNedd4L-WW3* [1]) is given as “R492 was found to be perturbed”, the “Killing of 721.221-ICP47-C1 cells by KIR2DL2 positive NK cells” value [2] is given as “maintained KIR2DL2 positive NK cells unresponsive towards 721.221-ICP47-C1 cells” and the “CD107a expression, KIR2DL2 positive vs negative NK cells” value [3] is given as “lower in KIR2DL2 positive NK cells in comparison with KIR2DL2 negative NK cells”. The “ΔG°” value (hNedd4L-WW3* [4]) was “(−3.49 ± 0.05)×10^1 kJ.mol^−1”, the “ΔH°” value (hNedd4L-WW3* [4]) was -58.7 ± 0.4 kJ/mol and the “ΔS°” value (hNedd4L-WW3* [4]) was -79.8 ± 0.9 J. mol^−1.K^−1.
In the case of “MBP: myelin basic protein, a key component of the myelin sheath (IVTPRTPPPSQGKGR)”, the “Killing of 721.221-ICP47-C1 cells by KIR2DL2 positive NK cells” value [2] is listed as “induced 721.221-ICP47-C1 cell killing”, the “Effect of MBP phosphorylation on interaction with Fyn-SH3” value (Fyn-SH3) is listed as “reduced interaction with Fyn-SH3” and the “Effect of MBP phosphorylation on lipid interaction” value [5] is listed as “decreases the interaction between MBP and lipids”. The “Effect of MBP phosphorylation on actin polymerization and bundling” value (actin) was “decrease the ability of MBP to polymerize actin and to bundle actin filaments”.
